# Test results taken from patent publication US8192935B2, “Methods for assessing cisplatin resistance, disease progression, and treatment efficacy in ovarian cancer as related to MetAP2 expression” (The Penn State Research Foundation, priority 2003, dated 2012).
# Like-named read-outs stand apart in the source and are kept apart here.
# Key:
# human colon cancer = settings: Tanaka et al., 1995; cited from earlier work
# MetAP-2 [1] = molecular target: MetAP-2 (Homo sapiens, UniProt P50579); settings: Griffith et al.; cited from earlier work
# Chain of MetAP-2 (Homo sapiens, UniProt P50579) (P50579 whole entry, species assumed): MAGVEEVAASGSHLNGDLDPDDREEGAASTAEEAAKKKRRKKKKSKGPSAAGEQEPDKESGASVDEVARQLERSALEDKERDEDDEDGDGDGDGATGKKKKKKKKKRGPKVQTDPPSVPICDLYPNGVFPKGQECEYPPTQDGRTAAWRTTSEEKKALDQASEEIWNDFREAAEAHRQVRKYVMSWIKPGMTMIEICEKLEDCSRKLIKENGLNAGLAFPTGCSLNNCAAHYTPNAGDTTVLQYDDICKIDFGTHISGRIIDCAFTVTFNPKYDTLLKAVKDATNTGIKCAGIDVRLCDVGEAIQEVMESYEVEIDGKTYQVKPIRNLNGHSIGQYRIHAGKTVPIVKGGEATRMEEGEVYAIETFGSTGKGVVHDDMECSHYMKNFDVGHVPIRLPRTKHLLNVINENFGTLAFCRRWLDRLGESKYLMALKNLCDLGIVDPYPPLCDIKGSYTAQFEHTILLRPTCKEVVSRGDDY
# OVCA 429 cells = settings: for 429: increased sensitivity to cis-platin: OVCA 429 cells with specific siRNA
# MetAP-2 [2] = settings: several different cell types; Wang et al., 2000; cited from earlier work
# MetAP-2 messenger RNA = experiment: siRNA knockdown, quantitative real-time PCR; settings: OVCA 429 (FIG. 44)
# Procedure: The reaction mixture was then incubated at 42° C. for 60 minutes. cDNA dilutions from 1:4 to 1:256 were prepared. […] Green PCR Master Mix (Qiagen), 0.3 μM of forward primer, 0.3 μM of reverse primer, and RNase free water were added to a final volume of 45 μl.
# Sequence detection was determined using the ABI Prism 7700 (Applied Biosystems, Inc., Foster City, Calif.) sequence detection system or the MJ Research (Waltham, Mass.) Opticon II system as follows: PCR initial activation step was carried out for 15 minutes at 95° C.; samples were denatured for 15 seconds at 94° C., annealed for 30 seconds at 53° C. (55° C. when the Opticon II system was used), and extended for 30 seconds at 72° C. (data was acquired during this step); the PCR reaction was repeated for 50 cycles. A melting curve analysis was prepared by adding on the following steps: 15 seconds at 95° C., 20 seconds at 60° C., and 20 seconds at 95° C.
# The siRNA experiments described herein were conducted using the siPORT Lipid protocol (Ambion). […]
# Cells were transfected with the siRNA constructs following instruction from the supplier (Ambion). […] The OD260 readings of siRNA were performed in duplicate at a 1:100 dilution. The readings were averaged, then multiplied by the dilution factor and then by multiplied by 40 (the OD260of 1 is equal to 40 μg/ml of RNA) to get the final concentration of siRNA in μg/ml. […]
# OVCAR-3 cells = experiment: MTT assay, cis-platin sensitivity with siRNA; format: cell-based, human; settings: OVCAR-3 cells with specific siRNA
# NM23-D (BC004880) = experiment: siRNA-mediated knockdown of gene expression; format: cell-based, human; settings: OVCA 429 cells
# RNPS1 (AF015608) = experiment: siRNA-mediated knockdown of gene expression; format: cell-based, human; settings: ovarian cancer cell lines
# S100A11 message = experiment: siRNA knockdown of gene expression; format: cell-based, human; settings: OVCA 429 (FIG. 57)
# SAPK/Erk1 (L36870) = experiment: siRNA-mediated knockdown of gene expression; format: cell-based, human; settings: ovarian cancer cell lines
# [3] = system: SRB1/CLA1/CD3611 (BCO22087); experiment: siRNA-mediated knockdown of gene expression; format: cell-based, human; settings: ovarian cancer cell lines
# Vinexin 13 (AF037261) = experiment: siRNA-mediated knockdown of gene expression; format: cell-based, human; settings: OVCA 429 cells
# WDR1 (AB010427) = experiment: siRNA-mediated knockdown of gene expression; format: cell-based, human; settings: OVCA 429 cells
# eEF1ε (BC005291) = experiment: siRNA-mediated knockdown of gene expression; format: cell-based, human; settings: ovarian cancer cell lines
# e-IF2Bε (BC013590) = experiment: siRNA-mediated knockdown of gene expression; format: cell-based, human; settings: ovarian cancer cell lines
compound,measurement,setting,value
CO[C@@H]1[C@H](OC(=O)NC(=O)CCl)CC[C@]2(CO2)[C@H]1[C@@]1(C)O[C@@H]1CC=C(C)C [TNP-470],hepatic metastasis of human colon cancer,human colon cancer,can be prevented
same,inhibition of the methionine aminopeptidase activity of MetAP-2,MetAP-2 [1],covalently binds to and inhibits
CO[C@@H]1[C@H](OC(=O)/C=C/C=C/C=C/C=C/C(=O)O)CC[C@]2(CO2)[C@H]1[C@@]1(C)O[C@@H]1CC=C(C)C [fumagillin],effect on the action of cis-platin,"OVCA 429 cells; OVCA 429, 0.1 μg/ml fumagillin, 4 hours",enhancement of the effect of cis-platin
same,effect on the action of cis-platin,"OVCA 429 cells; OVCA 429, 0.1 μg/ml fumagillin, 8 hours",enhancement of the effect of cis-platin
same,effect on the action of cis-platin,"OVCA 429 cells; OVCA 429, 0.1 μg/ml fumagillin, regardless of the length of incubation time (FIGS. 41 and 42)",enhancement of the effect of cis-platin
same,effect on the action of cis-platin,"OVCA 429 cells; OVCA 429, 10 μg/ml fumagillin, regardless of the length of incubation time (FIGS. 41 and 42)",opposite effect
same,cell survival with fumagillin alone,"OVCA 429 cells; OVCA 429, very high concentrations of fumagillin, 4 hours (FIG. 40)",up to 80%
same,expression of MetAP-2 after treatment,MetAP-2 [2],increased expression of MetAP-2
same,inhibition of the methionine aminopeptidase activity of MetAP-2,MetAP-2 [1],covalently binds to and inhibits
"MetAP-2 siRNA #2: siRNA to MetAP-2; target sequence AAGCA CAT CGA CAA GTT AGA A (guide AAGCACATCGACAAGTTAGAA; target site or template, no part of the molecule; listed as DNA, chemistry not given here; listed as Homo Sapiens)",levels of MetAP-2 expression,MetAP-2 messenger RNA,did not result in a reduction
"MetAP-2 siRNA #3: siRNA to MetAP-2; target sequence AAACA GTG CCG ATT GTG AAA G (guide AAACAGTGCCGATTGTGAAAG; target site or template, no part of the molecule; listed as DNA, chemistry not given here; listed as Homo Sapiens)",levels of MetAP-2 expression,MetAP-2 messenger RNA,did not result in a reduction
"NM23D siRNA #3: siRNA to NM23-D; target sequence AATGTCATCCACGCCAGCGAC (guide AATGTCATCCACGCCAGCGAC; target site or template, no part of the molecule; listed as DNA, chemistry not given here; listed as Homo Sapiens)",429: increased sensitivity to cis-platin,OVCA 429 cells,yes
same,OVCAR-3: increased sensitivity to cis-platin,OVCAR-3 cells,yes
same,reduction of NM23-D mRNA levels compared to control,NM23-D (BC004880),approximately 50%
"RNPS1 siRNA #1: siRNA to RNPS1; target sequence AATATTCATACGGCATGGACT (guide SDNAATATTCATACGGCATGGACT; target site or template, no part of the molecule; listed as DNA, chemistry not given here; listed as Homo Sapiens)",429: increased sensitivity to cis-platin,OVCA 429 cells,yes
same,reduction in the level of RNPS1 mRNA,RNPS1 (AF015608),35%
"S100A11 siRNA #1: siRNA to S100A11; AA AGG ATG GTT ATA ACT ACA C (guide AAAGGATGGTTATAACTACAC; target site or template, no part of the molecule; listed as DNA, chemistry not given here; listed as Homo Sapiens)",knockdown of S100A11 gene expression levels,S100A11 message,50%
"S100A11 siRNA #2: siRNA to S100A11; AA GAA ACT GGA CAC CAA CAG T (guide AAGAAACTGGACACCAACAGT; target site or template, no part of the molecule; listed as DNA, chemistry not given here; listed as Homo Sapiens)",knockdown of S100A11 gene expression levels,S100A11 message,25%
"SAPK/Erk1 siRNA #2: siRNA to SAPK/Erk1; target sequence AAGCGCATCACGACAAGGATA (guide AAGCGCATCACGACAAGGATA; target site or template, no part of the molecule; listed as DNA, chemistry not given here; listed as Homo Sapiens)",reduction in the level of SAPK mRNA,SAPK/Erk1 (L36870),60%
same,429: increased sensitivity to cis-platin,OVCA 429 cells,yes
same,OVCAR-3: increased sensitivity to cis-platin,OVCAR-3 cells,yes
"SRB1 siRNA #1: siRNA to SRB1; target sequence AAGCAGCAGGTCCTTAAGAAC (guide AAGCAGCAGGTCCTTAAGAAC; target site or template, no part of the molecule; listed as DNA, chemistry not given here; listed as Homo Sapiens)",429: increased sensitivity to cis-platin,OVCA 429 cells,yes
same,OVCAR-3: increased sensitivity to cis-platin,OVCAR-3 cells,yes
same,reduction in the level of SRB1 mRNA,[3],60%
"SRB1 siRNA #3: siRNA to SRB1; target sequence AATTCAGAACGTCAGCACCTG (guide AATTCAGAACGTCAGCACCTG; target site or template, no part of the molecule; listed as DNA, chemistry not given here; listed as Homo Sapiens)",reduction in the level of SRB1 mRNA,[3],successful in reducing the expression of SRB1
"Vinexin β siRNA #2: siRNA to Vinexin (AF037261); target sequence AAGAGTTACCTAGAAGCACCT (guide AAGAGTTACCTAGAAGCACCT; target site or template, no part of the molecule; listed as DNA, chemistry not given here; listed as Homo Sapiens)",429: increased sensitivity to cis-platin,OVCA 429 cells,no
same,OVCAR-3: increased sensitivity to cis-platin,OVCAR-3 cells,yes
same,reduction of Vinexin mRNA levels compared to control,Vinexin 13 (AF037261),approximately 50%
"WDR1 siRNA #1: siRNA to WDR1; target sequence AATGGAAAGTGCGTCATCCTA (guide AATGGAAAGTGCGTCATCCTA; target site or template, no part of the molecule; listed as DNA, chemistry not given here; listed as Homo Sapiens)",429: increased sensitivity to cis-platin,OVCA 429 cells,no
same,OVCAR-3: increased sensitivity to cis-platin,OVCAR-3 cells,yes
same,reduction of WDR1 mRNA levels compared to control,WDR1 (AB010427),approximately 85%
"WDR1 siRNA #2: siRNA to WDR1; target sequence AAGTTCACAATTGGCGACCAC (guide AAGTTCACAATTGGCGACCAC; target site or template, no part of the molecule; listed as DNA, chemistry not given here; listed as Homo Sapiens)",reduction of WDR1 mRNA levels compared to control,WDR1 (AB010427),approximately 75%
"WDR1 siRNA #3: siRNA to WDR1; target sequence AAGTGCTTCAGCATCGACAAC (guide AAGTGCTTCAGCATCGACAAC; target site or template, no part of the molecule; listed as DNA, chemistry not given here; listed as Homo Sapiens)",reduction of WDR1 mRNA levels compared to control,WDR1 (AB010427),approximately 70%
"eEF1ε siRNA #1: siRNA to eEF1ε; target sequence AACAGGATTGACTACTATAGC (guide AACAGGATTGACTACTATAGC; target site or template, no part of the molecule; listed as DNA, chemistry not given here; listed as Homo Sapiens)",reduction in the level of eEF1ε mRNA,eEF1ε (BC005291),65%
"eEF1ε siRNA #2: siRNA to eEF1ε; target sequence AATACAGGGTCACTCAAGTAG (guide AATACAGGGTCACTCAAGTAG; target site or template, no part of the molecule; listed as DNA, chemistry not given here; listed as Homo Sapiens)",reduction in the level of eEF1ε mRNA,eEF1ε (BC005291),successful in reducing the expression of eEF1ε
"eIF2Bε siRNA #1: siRNA to e-IF2Bε; target sequence AATGTGGTTCGAATAATTACA (guide AATGTGGTTCGAATAATTACA; target site or template, no part of the molecule; listed as DNA, chemistry not given here; listed as Homo Sapiens)",429: increased sensitivity to cis-platin,OVCA 429 cells,yes
same,OVCAR-3: increased sensitivity to cis-platin,OVCAR-3 cells,yes
same,reduction in the level of e-IF2Bε mRNA,e-IF2Bε (BC013590),57%
"eIF2Bε siRNA #2: siRNA to e-IF2Bε; target sequence AAACTCGAGATGACTTTGTGC (guide AAACTCGAGATGACTTTGTGC; target site or template, no part of the molecule; listed as DNA, chemistry not given here; listed as Homo Sapiens)",reduction in the level of e-IF2Bε mRNA,e-IF2Bε (BC013590),54%
"eIF2Bε siRNA #3: siRNA to e-IF2Bε; target sequence AATCAACAGCTGCAGAGGTTC (guide AATCAACAGCTGCAGAGGTTC; target site or template, no part of the molecule; listed as DNA, chemistry not given here; listed as Homo Sapiens)",reduction in the level of e-IF2Bε mRNA,e-IF2Bε (BC013590),43%
